Laboratory results taken from patent US10493131B2, “Materials and methods for modulating activity of bone marrow derived cells” (University of Florida Research Foundation, Incorporated, priority 2011, dated 2019).

Columns and labels:
[1] = test system: CD34+ BMDEC; assay: Detection of nitric oxide (NO) produced by cells (DAF-FM fluorescence); type: cell-based, human; settings: pretreatment with MK2206 20 nM 30 minutes; 50 ng/ml rhRLX
Method: Isolation of CD34+ BMDEC. The study protocol was approved by the Institutional Review Board of the University of Florida, and written informed consent was obtained from each subject. Blood was collected from healthy controls by routine venipuncture into CPT™ Tubes with heparin (BD Biosciences, Franklin Lakes, N.J.), centrifuged at room temperature in a swinging bucket rotor for 20 minutes at 1800 RCF, the peripheral blood mononuclear cells (PBMCs) diluted with phosphate buffered saline supplemented with 2 mM EDTA (PBSE) and centrifuged for 10 minutes at 300 RCF. After washing the cell pellet, centrifugation was repeated. […]
Detection of Nitric Oxide (NO) produced by cells. […] Bioavailable NO was determined as previously described (Shah, R., Beem, E., Sautina, L., Zharikov, S. I., and Segal, M. S. 2007. Mitomycin- and calcineurin-associated HUS, endothelial dysfunction and endothelial repair: a new paradigm for the puzzle? Nephrol Dial Transplant 22:617-620). […] DAF-FM fluorescence increases by about 160-fold when it reacts with NO. Green fluorescence was measured using the inverted fluorescent Carl Zeiss Axiovert 200M microscope equipped with a CCD camera and Slidebook software (v.4.1; Intelligent Imaging Innovations, Inc. Denver, Colo.). Fluorescence intensity was measured in 20-30 cells per field in at least 6 fields per well. […]

[2] = test system: CD34+ BMDEC; assay: SDF-1/Relaxin induced chemotaxis (Boyden chamber); type: cell-based, human; settings: 10 μM L-NAME
Method: Isolation of CD34+ BMDEC. The study protocol was approved by the Institutional Review Board of the University of Florida, and written informed consent was obtained from each subject. Blood was collected from healthy controls by routine venipuncture into CPT™ Tubes with heparin (BD Biosciences, Franklin Lakes, N.J.), centrifuged at room temperature in a swinging bucket rotor for 20 minutes at 1800 RCF, the peripheral blood mononuclear cells (PBMCs) diluted with phosphate buffered saline supplemented with 2 mM EDTA (PBSE) and centrifuged for 10 minutes at 300 RCF. After washing the cell pellet, centrifugation was repeated. 3.3×10^7 PBMCs were resuspended in 100 μl of PBSE to which 33 μl of FcR blocking reagent (Miltenyi Biotec Inc., Auburn, Calif.) and 33 μl of magnetic microbeads conjugated with an anti-CD34 antibody was added. After incubation for 30 minutes at 4° C., the cells were diluted in 10× the volume of PBSE supplemented with 0.1% bovine serum albumin. The CD34+ BMDEC were positively selected using an automated magnetic selection autoMACS™ (Miltenyi Biotec Inc., Auburn, Calif.). […] After 4.5 hours at 5% CO2 at 37° C., the percentage of cells that migrated was determined by collecting the media in the lower chamber and determining the relative fluorescence using a Synergy™ HT (Bio-Tek Instruments, Inc., Winooski, Vt.) with an excitation of 485±20 and an emission of 528±20 nm. […]

Row | SMILES | effect on rhRLX stimulation of NO [1] | effect on basal level of migration [2] | effect on relaxin-stimulated chemotaxis ([2]; 50 ng/ml rhRLX)
1 | NC1(c2ccc(-c3nc4ccn5c(=O)[nH]nc5c4cc3-c3ccccc3)cc2)CCC1 [MK2206] | prevented | – | –
2 | COC(=O)[C@@H](N)CCCNC(=N)N[N+](=O)[O-] [L-NAME, L—N^G-nitroarginine methy ester] | – | unaffected | blocked
